Reference: patent US8784860B2 (Cordis Corporation, priority 2005, dated 2014)
Entries after “also recorded” stand apart in the source; their conditions may differ.

Experiments:
[1] = Liquid formulations: drug concentration by liquid chromatography and visual observation; type: physicochemical; conditions: water, ethanol less than two percent, Vitamin E TPGS
Procedure: The concentrations of each constituent were determined by liquid chromatography and are presented as weight by volume figures.
The liquid formulation was created utilizing the following process. Two hundred milligrams of sirolimus and two grams of ethanol were added to a pre-weighed twenty milliliter scintillation vial. The vial was vortexed and sonicated until the sirolimus was completely dissolved. Approximately six hundred milligrams of Vitamin E TPGS was then added to the solution of ethanol and sirolimus. The vial was vortexed again until a clear yellowish solution was obtained. Nitrogen gas was then used to reduce the amount of ethanol in the vial to approximately two hundred twenty-nine milligrams. In a separate vial, three hundred milligrams of Vitamin E TPGS was dissolved in eleven milliliters of purified water while undergoing vortexing. The Vitamin E TPGS and water solution was then added to the first vial containing the sirolimus, Vitamin E TPGS and ethanol. The first vial was then vortexed vigorously and continuously for three minutes.
In another exemplary embodiment, a liquid formulation of CCI-779, a sirolimus analog, is prepared utilizing ethanol, Vitamin E TPGS and water. This liquid formulation was made under similar conditions as to that described above. […]

[2] = tested on: human coronary artery smooth muscle cells; experiment: Anti-proliferative activity in non-synchronized cultured coronary artery smooth muscle cells, two percent fetal bovine serum; type: cell-based
From the text: The multiple curves represent various concentrations of mycophenolic acid ranging from zero to one thousand nanomolar concentrations.
FIG. 58 illustrates, in graphical format, the anti-proliferative activity of cladribine in non-synchronized cultured human coronary artery smooth muscle cells stimulated with two percent fetal bovine serum.
The multiple curves represent various concentrations of cladribine ranging from zero to nine hundred nanomolar concentrations.

[3] = Porcine pharmacokinetics studies: in vivo release kinetics from stent coatings; conditions: for drug remained in the drug coating: after eight (8) days of implantation, porcine, single layer sirolimus + cilostazol in EVA/BMA, 100 μg BMA overcoat (FIG. 83)
From the text: The topcoat is two hundred micro grams.
FIG. 61 is a graphical representation of the in vivo release kinetics of cladribine from a polymeric coating on Bx Velocity® stents, available from Cordis Corporation, implanted in a Yorkshire pig. The basecoat comprises an 85/15 ratio of PVDF and HFP and cladribine for a total combined weight of one thousand eight hundred micrograms (cladribine comprising thirty percent of the total weight). The topcoat comprises an 85/15 ratio of PVDF/HFP and no cladribine. The total weight of the topcoat is three hundred micrograms.
(§1) The basecoat is applied to Bx Velocity® stents and implanted into Yorkshire pigs.
as §1
Another critical parameter for the performance of the thrombus resistance of a device coated with cilostazol is the duration of the drug release from the coating. This is of particular significance in the two weeks after device implantation. […] The purpose of the porcine PK study is to assess the local pharmacokinetics of a drug eluting stent at a given implantation time. Normally three stents are implanted in three different coronary arteries in a pig for a given time point and then retrieved for total drug recovery analysis. The stents are retrieved at predetermined time points; namely, 1, 3 and 8 days. The stents are extracted and the total amount of drug remaining on the stents is determined by analysis utilizing HPLC (high performance liquid chromatography) for total drug amount. The difference between the original amount of drug on the stent and the amount of drug retrieved at a given time represents the amount of drug released in that period. The continuous release of drug into surrounding arterial tissue is what prevents the neointimal growth and restenosis in the coronary artery. A normal plot represents the percentage of total drug released (%, y-axis) vs. time of implantation (day, x-axis). […] Curve 8102 represents cilostazol and curve 8104 represents sirolimus. […] In this exemplary configuration, the stent 8300 is coated with two layers. The first layer 8302 comprises a combination of sirolimus, cilostazol and a copolymer matrix of EVA/BMA. The second layer or diffusion overcoat 8304 comprises only BMA. More specifically, in this embodiment, the first layer 8302 comprises a combination of sirolimus and cilastazol that is forty-five (45) percent by weight of the total weight of the first layer 8302 and an EVA/BMA copolymer matrix that is fifty-five (55) percent by weight of the total weight of the first layer 8302. The diffusion overcoat comprises one hundred (100 μg) micrograms of BMA.

[4] = In vitro release kinetics from stent coatings; type: physicochemical; conditions: for in vitro release rate of cladribine, effect of topcoat: twenty-five percent ethanol/water, room temperature
[5] = tested on: human smooth muscle cells; experiment: Cladribine Example: PDGF-stimulated proliferation of smooth muscle cells; type: cell-based; conditions: from IC50 values 23 and 40 nanomolar
Procedure: To assess the ability of cladribine to prevent cell proliferation, human smooth muscle or endothelial cells (Clonetics, Walkersville, Md.) were seeded at a density of 2000 cells/cm^2 (approximately 3600 cells/well) into each well of 12-well plates and cultured with 1.5 ml of growth medium containing five percent fetal calf serum (FCS). After twenty-four hours, the growth medium was changed and fresh medium containing 10 ng/ml platelet-derived growth factor AB (PDGF AB; LIFE Technologies), as well as various concentrations of cladribine (0.001-10,000 nM) were added with triplicate wells. Medium was replaced with fresh cladribine-containing medium after three days. On day six, cells were detached by trypsinization to yield a cell suspension, lightly centrifuged to pellet and then counted manually using a Neubauer hemocytometer system. Cell viability was assessed by trypan blue exclusion.

[6] = tested on: human coronary artery smooth muscle cells; experiment: Anti-proliferative activity in synchronized cultured coronary artery smooth muscle cells, two percent fetal bovine serum; type: cell-based
From the text: (§2) The multiple curves represent various concentrations of topotecan ranging from zero to three hundred nanomolar concentrations.
(§3) The multiple curves represent various concentrations of etoposide ranging from zero to eight hundred nanomolar concentrations.
Referring to FIG. 66, there is illustrated, in graphical format, the anti-proliferative activity of Panzem® in synchronized cultured human coronary artery smooth muscle cells stimulated with two percent fetal bovine serum.
The multiple curves represent various concentrations of Panzem® ranging from zero to 100 micromolar concentrations.

[7] = tested on: human coronary artery smooth muscle cell; conditions: concentrations 6.6 nanomolar up to 30,000.00 nanomolar
From the text: In vitro cytotoxicity tests or assays may be utilized to determine if drugs, agents and/or compounds are potentially toxic and the level of toxicity. Essentially, in vitro cytotoxicity assays determine acute necrotic effects by a drug causing direct cellular damage. The idea behind these assays is that toxic chemicals affect basic functions of cells which are common to all cells. […] There are a number of different assays that may be utilized. In the present invention, the cytotoxicity assay utilized is based upon the measurement of cellular metabolic activity. A reduction in metabolic activity is an indication of cellular damage. Tests that can measure metabolic function measure cellular ATP levels or mitochondrial activity via MTS metabolism. FIG. 69 is a graphical representation of the results of an MTS assay of Panzem®.

[8] = tested on: tumor cell lines; conditions: tumor cell lines (Woo et al., 2002); cited from earlier work
[9] = tested on: human coronary artery smooth muscle cell; experiment: In vitro cell culture study of coronary artery smooth muscle cell proliferation (trichostatin A); type: cell-based
From the text: FIG. 51 is a graph of the inhibition of coronary artery smooth muscle cells by trichostatin A in a cell culture study.

[10] = tested on: cell viability; experiment: Cell viability assay; type: cell-based
From the text: as §2, §3

[11] = tested on: bovine blood; experiment: In vitro bovine blood loop model (In 111 labeled platelets); conditions: sirolimus/cilostazol coated stents versus control
From the text: The anti-thrombotic efficacy of the above-described three configurations is illustrated in FIG. 80. FIG. 80 illustrates the anti-thrombotic properties of the sirolimus/cilostazol combination coatings described above in an in vitro bovine blood loop model. In the in vitro bovine blood loop model, fresh bovine blood is heparinized to adjust for acute clotting time (ACT) of about two hundred (200) seconds. The platelet content in the blood is labeled through the use of Indium 111. In the study, a stent is deployed in a silicone tube, which is part of a closed loop system for blood circulation. The heparinzed blood is circulated through the closed loop system by means of a circulating pump. Blood clots and thrombus builds up on a stent surface over time and reduces the flow rate of blood through the stented loop. […] The control drug eluting stent is the Cypher® sirolimus eluting coronary stent available from Cordis Corporation. Bar 8004 is a stent coated with heparin and is available from Cordis Corporation under the […]® on the Bx Velocity® coronary stent trademark. Bar 8006 is a stent configured as set forth with respect to the architecture illustrated in FIG. 75. Bar 8008 is a stent configured as set forth with respect to the architecture illustrated in FIG. 77. Bar 8010 is a stent configured as set forth with respect to the architecture illustrated in FIG. 79.

[12] = 600 μg EVA/BMA basecoat with 30% rapamycin and 30% mycophenolic acid, no, 100 or 200 μg BMA topcoat

## CO[C@H]1C[C@@H]2CC[C@@H](C)[C@@](O)(O2)C(=O)C(=O)N2CCCC[C@H]2C(=O)O[C@H]([C@H](C)C[C@@H]2CC[C@@H](OC(=O)C(C)(CO)CO)[C@H](OC)C2)CC(=O)[C@H](C)/C=C(\C)[C@@H](O)[C@@H](OC)C(=O)[C@H](C)C[C@H](C)/C=C/C=C/C=C/1C [CCI-779]
[1]
  concentration of CCI-779 in the final solution (HPLC): 15000 µg/mL

## COc1c(C)c2c(c(O)c1C/C=C(\C)CCC(=O)O)C(=O)OC2 [mycophenolic acid]
[2]; mycophenolic acid zero to one thousand nanomolar added to rapamycin
  effect of mycophenolic acid on the anti-proliferative rapamycin dose response curve: potentiates the anti-proliferative activity of rapamycin
[3]; [12]
  in vivo release of mycophenolic acid, effect of topcoat: BMA topcoat does slow the release of mycophenolic acid
[3]; EVA/BMA basecoat, BMA topcoat
  in vivo elution of mycophenolic acid compared with rapamycin: elutes more completely over a shorter duration than the rapamycin

## Nc1nc(Cl)nc2c1ncn2[C@H]1C[C@H](O)[C@@H](CO)O1 [cladribine, 2-chlorodeoxyadenosine]
[4]; non-sterile PVDF/HFP (85/15) coatings
  in vitro release rate of cladribine, effect of topcoat: increase in topcoat weight or thickness led to a decrease in the release rate of cladribine
[4]; sterile PVDF/HFP coating
  in vitro release rate of cladribine, effect of topcoat: drastic decrease of release rate of cladribine
[2]; cladribine 56.25 to 900 nanomolar added to rapamycin
  effect of cladribine on the anti-proliferative rapamycin dose response curves: potentiate the anti-proliferative activity of rapamycin; also recorded: increases the percent inhibition of rapamycin alone
[2]; non-synchronized cells, two percent fetal bovine serum
  inhibition of human coronary artery smooth muscle cell proliferation: completely inhibits
[3]; Bx Velocity stent, Yorkshire pig, 1800 μg PVDF/HFP (85/15) basecoat with 30% cladribine, 300 μg topcoat
  in vivo elution of cladribine: after the first day, the elution of cladribine levels off significantly
[3]; EVA/BMA basecoat, 200 μg BMA topcoat, Yorkshire pigs
  in vivo elution of cladribine compared with rapamycin: elutes more rapidly than rapamycin
[5]
  potency as inhibitor of smooth muscle cells relative to endothelial cells: approximately twice

## COc1cc2c(cc1O)CC[C@@H]1[C@@H]2CC[C@]2(C)[C@@H](O)CC[C@@H]12 [Panzem®, 2-methoxyestradiol]
[6]; Panzem 0.813 to 100 micromolar added to rapamycin
  effect of Panzem on the anti-proliferative activity of rapamycin: potentiation of rapamycin by Panzem®; also recorded: increases the percent of inhibition of rapamycin alone
[6]; synchronized human coronary artery smooth muscle cells, two percent fetal bovine serum
  anti-proliferative activity (single agent): extremely effective inhibitor of human coronary artery smooth muscle cell proliferation in vitro
[7]
  cytotoxicity, MTS assay: do not reduce human coronary artery smooth muscle cell survival

## CC(/C=C/C(=O)NO)=C\[C@@H](C)C(=O)c1ccc(N(C)C)cc1 [trichostatin A]
[8]
  anti-proliferative IC50's: low nM range
[9]
  inhibition of human coronary artery smooth muscle cell proliferation: completely inhibit
[9]; human coronary artery smooth muscle cells, read-out: anti-proliferative IC50
  IC50: ~6 nM

## COc1cc([C@@H]2c3cc4c(cc3[C@@H](O[C@@H]3O[C@@H]5CO[C@@H](C)O[C@H]5[C@H](O)[C@H]3O)[C@H]3COC(=O)[C@H]23)OCO4)cc(OC)c1O [etoposide]
[10]; concentrations up to ten micromolar
  cytotoxicity in cell viability assay: non-cytotoxic
[6]; etoposide 255.7 to eight hundred nanomolar added to rapamycin
  effect of etoposide on the anti-proliferative rapamycin dose response curves: potentiate the anti-proliferative activity of rapamycin; also recorded: increases the percent inhibition of rapamycin alone

## CC[C@@]1(O)C(=O)OCc2c1cc1n(c2=O)Cc2cc3c(CN(C)C)c(O)ccc3nc2-1 [topotecan]
[10]; concentrations up to one micromolar
  cytotoxicity in cell viability assay: non-cytotoxic
[6]; topotecan 18.8 to 300 nanomolar added to rapamycin
  effect of topotecan on the anti-proliferative rapamycin dose response curves: potentiate the anti-proliferative activity of rapamycin; also recorded: increases the percent inhibition of rapamycin alone

## CO[C@H]1C[C@@H]2CC[C@@H](C)[C@@](O)(O2)C(=O)C(=O)N2CCCC[C@H]2C(=O)O[C@H]([C@H](C)C[C@@H]2CC[C@@H](O)[C@H](OC)C2)CC(=O)[C@H](C)/C=C(\C)[C@@H](O)[C@@H](OC)C(=O)[C@H](C)C[C@H](C)/C=C/C=C/C=C/1C [rapamycin]
[3]; [12]
  in vivo release of rapamycin, effect of topcoat: BMA topcoat does slow the release of rapamycin
[3]; 600 μg EVA/BMA basecoats with varied rapamycin/cladribine loads, 200 μg BMA topcoat, Yorkshire pigs
  in vivo release rates of rapamycin from three rapamycin/cladribine coatings: substantially similar to one another
[3]; 600 μg PVDF basecoat, 200 μg PVDF topcoat
  in vivo release rate of rapamycin compared with mycophenolic acid: slower release rate than that of mycophenolic acid
[3]
  drug remained in the drug coating: ~80%

## O=C1CCc2cc(OCCCCc3nnnn3C3CCCCC3)ccc2N1 [cilostazol, 6[4-(1-cyclohexyl-1H-tetrazol-5-yl)-butoxy]-3,4-dihydro-2-(1H)-quinolinone]
[4]; layered sirolimus/cilostazol coatings of FIGS. 75 and 77
  in vitro drug release rate, 200 μg versus 100 μg BMA diffusion overcoat: comparatively slower from the configuration comprising the thicker diffusion overcoat of BMA
[4]; single layer sirolimus + cilostazol in EVA/BMA, 100 μg BMA overcoat (FIG. 83)
  in vitro release: ~35%
[3]
  drug remained in the drug coating: ~80%
[11]
  thrombus formation: significantly reduces thrombus formation
